Laboratory results taken from patent US9863956B2, “Differentiation of isobaric amino acids and other species” (Agency for Science, Technology and Research, priority 2009, dated 2018).
Where no end group is shown, it is not given here.

How the values were obtained:
bCAII = bCAII (Bos taurus, UniProt P00921); assay: SPR affinity measurement (Biacore 3000) of peptide on immobilized bCAII; format: binding, bovine
Method: Affinity measurements were performed using a Biacore 3000 system (GE Heathcare) equipped with research grade CM5 sensor chips (GE Healthcare). The CM5 sensor chip was preconditioned after docking and priming the instrument with HBS-EP (GE Heathcare) buffer. Flow cell 1 (or 3) was used as a reference to subtract nonspecific binding, drift, and bulk refractive index. Using a flow rate of 20 microliters/min, the sensor chip's four flow cells were activated at 25° C. with a 7 min injection of amine-coupling kit (GE Healthcare) (1:1 mixture of 0.4 M EDC and 0.1 M NHS). To create a bCAII surface, 1 mg of bCAII was dissolved in 1 mL of 10 mM sodium acetate (pH 5.0) and injected across flow cell 2 only. Approximately 1000 response units (RU) of bCAII were immobilized onto this surface. Finally, 1.0 M ethanolamine (pH 8.5) was injected across the four flow cells for 4 min to deactivate the surfaces. After bCAII immobilization, the instrument was primed three times using running buffer (1×PBS+3% DMSO). HIRYKR (SEQ ID NO: 2) peptide (26.13 micrograms) was dissolved in 18 microliters DMSO and diluted with HBS-EP buffer to produce a 50 micromolar peptide stock solution. The peptide stock solution was serially diluted by a factor of 2 to a concentration of 390 nM. […]

[1] = biological target: bovine carbonic anhydrase (bCAII) (Bos taurus, UniProt P00921); assay: OBOC hexamer peptide library screening with Alexa Fluor 647 labeled bCAII, COPAS Plus bead sorting; format: binding; details: 50 nM dye labeled bCAII, 15 hr at 25° C.; on-bead peptide
Method: Alexa Fluor® 647 protein labeling kit (A20173, Invitrogen) was chosen as the reactive dye for labeling bovine carbonic anhydrase (bCAII) following the supplier's protocol. Briefly, 2 mg/mL of bCAII in 0.1 M sodium bicarbonate (pH ˜8.3) was transferred 0.5 mL of bCAII solution into the vial of the reactive dye, and the vial was capped and inverted several times to dissolve the dye completely. The reaction mixture was stirred for 1 hr at room temperature under dark conditions. The Alexa Fluro® 647 labeled bCAII (bCAII-A647) was purified from the mixture using the size exclusion purification resin in the kit. Purified and labeled bCAII-A647 was characterized by NanoDrop (Thermo Scientific) and gel documentation (Typhoon) after SDS-PAGE. […]
Hit beads were sorted into cone-shaped wells of a 96 well plate using a COPAS Plus. […] The gating region was defined for beads based on their time-of-flight (TOF) and red fluorescence, and the sorting region was chosen for selecting beads based on their time-of-flight (TOF) and uniformity red fluorescence after incubation with bCAII-A647. […] The TOF, red fluorescence, and red fluorescence peak height of the beads were detected using a red diode laser (λ=635 nm). Due to the auto-fluorescence of the beads, the argon ion laser was intentionally turned off to minimize bleed-through effect. […]

Sequence of bCAII (P00921 whole entry): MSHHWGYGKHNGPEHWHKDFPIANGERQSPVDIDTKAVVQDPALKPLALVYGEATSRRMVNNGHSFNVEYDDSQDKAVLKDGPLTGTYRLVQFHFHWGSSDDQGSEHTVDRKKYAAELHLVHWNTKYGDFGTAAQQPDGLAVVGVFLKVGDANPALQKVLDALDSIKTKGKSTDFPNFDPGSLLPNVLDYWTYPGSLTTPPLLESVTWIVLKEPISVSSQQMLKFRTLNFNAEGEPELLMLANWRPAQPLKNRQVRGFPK
Sequence of bovine carbonic anhydrase (bCAII) (P00921 whole entry): as above

Substance	dissociation constant (KD) (bCAII; 1:1 Langmuir binding fit, 25° C., peptide 50 micromolar to 390 nM)	binding affinity to the protein bCAII (bCAII; conclusion in words)	hit in library screening against bCAII (bead fluorescence) [1]
HIRYKR [hit hexamer peptide from OBOC library screened against bCAII, re-synthesized from Fmoc D-amino acids with a carboxamide C-terminus]	micromolar range	significant binding affinity	hit peptide from the brightest bead
IQHKRF (not fully specified (residues 1, 2, 3, 4, 5, 6, C-terminus); also: D-amino acids, which residues not given here)			hit peptide
